ChEMBL document CHEMBL1201862, “PubChem BioAssay data set” (2004)
Calls of active or inactive are those of the source.

Tests used:
[1] = target: T1, E3 ubiquitin-protein ligase XIAP (Homo sapiens, UniProt P98170); experiment: small molecules displacing peptide from XIAP – biochemical, IAP family, fluorescence polarization (AID 1018); assay type: functional
[2] = target: T1, E3 ubiquitin-protein ligase XIAP; experiment: Counter Screen using XIAP-Bir3 for Chemical Antagonists of Bir1/2 domains of IAP-family anti-apoptotic proteins. [Related pubchem assays (depositor defined):AID1018, AID1449, AID1514, AID1638, AID1749, AID1750, AID488957, AID488963]
[3] = NIH3T3 cell viability loss – ATP luminescence, mouse fibroblasts, counter-screen, dose response (AID 2010); assay type: functional, cell-based;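 further: cells exposed to compound for about 90 hours before reading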
[4] = reduction of Shn3 3'UTR-driven luciferase in osteoblasts – cell-based, Clone20 osteoblasts, firefly luciferase, cherry-picked, dose response (AID 624132); assay type: functional;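 further: firefly luciferase luminescence from reporter carrying the Shn3 3'UTR in osteoblasts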
[5] = test system: H4; experiment: Luminescence Cell-Based Dose Response HTS to Identify Activators of 5'UTR Stem-Loop Driven Prion Protein mRNA Translation in H4 Neuroglioblastoma Cells. [Related pubchem assays: 1829 (Project Summary), 1814 (Primary HTS)]; assay type: functional; settings: Homo sapiens
[6] = Luminescence Cell-Based Dose Confirmation HTS to Identify Activators of 5'UTR Stem-Loop Driven Alpha-Synuclein mRNA Translation in H4 Neuroglioblastoma Cells. [Related pubchem assays: 1829 (Project Summary), 1814 (Primary HTS)]; assay type: functional
[7] = test system: A-375; experiment: MITF: Counter assay: A375 proliferation Measured in Cell-Based System Using Plate Reader - 2084-03_Inhibitor_Dose_DryPowder_Activity. [Related pubchem assays (depositor defined):AID488944]; assay type: functional; settings: Homo sapiens
[8] = target: DNA damage-inducible transcript 3 protein (Mus musculus, UniProt P35639); assay type: functional, Cricetulus griseus
[9] = loss of viability in HepG2 cells – cell-based, CellTiter-Glo, cherry-picked, cytotoxicity control for Shn3 inhibitor project, dose response (AID 624134); assay type: functional
[10] = non-specific 3'UTR reporter inhibition in Clone20-Shn3RL – cell-based, Renilla luciferase, cherry-picked, counter-screen for Shn3 inhibitor project, dose response (AID 624133); assay type: functional
[11] = Luminescence Cell-Based Dose Response HTS to Identify Activators of Luciferase Translation or Activity in H4 […] Cells. [Related pubchem assays: 1829 (Project Summary), 1814 (Primary HTS)]; assay type: functional
[12] = target: T2, Microphthalmia-associated transcription factor (Homo sapiens, UniProt O75030); experiment: reducers of TRPM1 reporter luminescence, concentration series – cell-based, SK-MEL-5, cherry-picked, set 3, MITF inhibitor project, dose response (AID 493073); assay type: functional;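 further: SK-MEL-5 melanoma cells with luciferase driven by the MITF target TRPM1 promoter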
T2 sequence (O75030 whole entry): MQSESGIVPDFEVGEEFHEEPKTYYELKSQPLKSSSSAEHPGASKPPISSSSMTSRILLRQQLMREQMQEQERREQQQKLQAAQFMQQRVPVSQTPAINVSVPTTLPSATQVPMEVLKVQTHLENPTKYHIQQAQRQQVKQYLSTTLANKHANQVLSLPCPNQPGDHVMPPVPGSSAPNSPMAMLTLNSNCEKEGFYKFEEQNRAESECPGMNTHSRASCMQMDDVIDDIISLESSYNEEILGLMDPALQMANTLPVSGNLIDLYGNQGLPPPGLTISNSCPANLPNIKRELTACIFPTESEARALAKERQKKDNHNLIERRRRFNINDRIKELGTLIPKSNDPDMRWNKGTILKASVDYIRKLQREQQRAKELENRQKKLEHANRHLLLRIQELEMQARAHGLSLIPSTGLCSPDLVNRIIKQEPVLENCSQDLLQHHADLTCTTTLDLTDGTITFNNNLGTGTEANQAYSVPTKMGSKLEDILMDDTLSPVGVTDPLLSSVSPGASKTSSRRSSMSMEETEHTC

[13] = Trypanosoma cruzi growth suppression in host cells – NIH3T3 host cells, beta-gal luminescence, confirmation (AID 2044); assay type: functional, cell-based;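 further: intracellular parasites grown in NIH/3T3 mouse fibroblasts as host cells; luminescent beta-galactosidase reporter signal from transgenic T. cruzi replicating inside host cells; inhibitors lower the luminescence signal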
[14] = target: Voltage-gated inwardly rectifying potassium channel KCNH2 (Homo sapiens, UniProt Q12809); experiment: concentration-dependent hERG rescue from blockers – cell-based, thallium flux, dose response (AID 2121); assay type: ADME
[15] = toxicity toward cultured mammalian cells – cell-based, plate reader, cherry-pick samples, cytotoxicity control, dose response (AID 504397); assay type: functional
[16] = test system: HEK293; experiment: EBV LMP1 TES2 canonical NF-kB signalling blockers – cell-based, HEK293, luciferase, cherry-pick, dose response (AID 588343); assay type: functional; settings: Homo sapiens

T1 sequence (P98170 whole entry): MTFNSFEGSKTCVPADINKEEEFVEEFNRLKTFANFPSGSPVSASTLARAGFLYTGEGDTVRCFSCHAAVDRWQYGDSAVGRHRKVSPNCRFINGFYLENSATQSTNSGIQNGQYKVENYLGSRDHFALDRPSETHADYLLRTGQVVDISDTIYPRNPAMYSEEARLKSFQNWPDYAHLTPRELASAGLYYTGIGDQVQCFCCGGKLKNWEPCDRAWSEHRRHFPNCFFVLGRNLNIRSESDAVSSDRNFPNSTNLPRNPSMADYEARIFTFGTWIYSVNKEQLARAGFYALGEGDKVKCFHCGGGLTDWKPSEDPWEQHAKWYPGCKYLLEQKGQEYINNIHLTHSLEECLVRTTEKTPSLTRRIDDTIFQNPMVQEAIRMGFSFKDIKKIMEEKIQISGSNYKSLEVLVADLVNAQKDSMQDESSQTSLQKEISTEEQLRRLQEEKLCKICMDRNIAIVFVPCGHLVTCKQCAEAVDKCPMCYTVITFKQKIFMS
Voltage-gated inwardly rectifying potassium channel KCNH2, sequence (Q12809 whole entry): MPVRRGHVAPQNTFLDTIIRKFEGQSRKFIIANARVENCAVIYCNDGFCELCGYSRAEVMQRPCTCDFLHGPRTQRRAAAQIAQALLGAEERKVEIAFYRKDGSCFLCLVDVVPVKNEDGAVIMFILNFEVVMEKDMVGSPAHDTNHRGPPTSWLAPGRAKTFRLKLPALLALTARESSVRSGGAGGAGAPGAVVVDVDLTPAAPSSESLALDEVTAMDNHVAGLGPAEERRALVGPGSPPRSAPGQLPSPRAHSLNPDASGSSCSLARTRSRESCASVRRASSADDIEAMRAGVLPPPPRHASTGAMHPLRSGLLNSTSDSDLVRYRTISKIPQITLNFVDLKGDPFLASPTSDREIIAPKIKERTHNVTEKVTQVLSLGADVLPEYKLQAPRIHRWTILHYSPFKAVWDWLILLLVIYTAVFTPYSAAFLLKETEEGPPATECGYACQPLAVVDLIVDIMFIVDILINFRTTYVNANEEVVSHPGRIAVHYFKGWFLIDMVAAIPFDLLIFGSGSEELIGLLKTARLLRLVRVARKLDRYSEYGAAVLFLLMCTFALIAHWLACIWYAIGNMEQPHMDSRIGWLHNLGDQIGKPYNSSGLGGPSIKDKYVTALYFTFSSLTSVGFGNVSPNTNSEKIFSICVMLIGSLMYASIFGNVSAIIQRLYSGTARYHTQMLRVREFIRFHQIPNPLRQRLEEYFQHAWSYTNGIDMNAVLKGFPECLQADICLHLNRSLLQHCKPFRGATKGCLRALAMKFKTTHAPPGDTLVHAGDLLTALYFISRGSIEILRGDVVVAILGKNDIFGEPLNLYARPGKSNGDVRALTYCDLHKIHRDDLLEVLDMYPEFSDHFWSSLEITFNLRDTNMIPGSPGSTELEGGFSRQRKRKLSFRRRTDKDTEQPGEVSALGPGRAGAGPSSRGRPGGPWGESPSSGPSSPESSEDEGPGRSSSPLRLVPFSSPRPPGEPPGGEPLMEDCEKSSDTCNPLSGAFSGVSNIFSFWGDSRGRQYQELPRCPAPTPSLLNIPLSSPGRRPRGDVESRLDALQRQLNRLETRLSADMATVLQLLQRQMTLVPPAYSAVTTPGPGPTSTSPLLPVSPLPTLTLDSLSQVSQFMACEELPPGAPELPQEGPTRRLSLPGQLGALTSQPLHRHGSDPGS
DNA damage-inducible transcript 3 protein, sequence (P35639 whole entry): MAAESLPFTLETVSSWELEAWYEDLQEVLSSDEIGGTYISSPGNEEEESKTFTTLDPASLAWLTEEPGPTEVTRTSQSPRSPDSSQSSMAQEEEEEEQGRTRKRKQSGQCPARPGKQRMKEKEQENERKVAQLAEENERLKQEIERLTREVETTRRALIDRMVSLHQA

Row | SMILES | IC50 [1] | IC50 [2] | EC50 [3] | AC50 [4] | EC50 [5] | EC50 [6] | AC50 [7] | Absolute IC50 (CHOP) [8] [µM] | AC50 [9] | AC50 [10] | EC50 [11] | AC50 [12] | EC50 [13] | EC50 [14] | AC50 [15] | AC50 [16]
1 | CN1/C(=C\C=C2\N=C(c3ccc(F)cc3)OC2=O)C(C)(C)c2ccccc21 | > 100 µM (not active) | > 12.5 µM (inactive) | – | – | – | – | – | – | – | – | – | – | – | – | – | –
2 | CC(C)(C)C(=O)Cn1ncc(Br)c(Br)c1=O | – | – | 1.93 µM (active) | 9.51 µM (active) | > 120 µM (not active) | > 120 µM (not active) | 32.8 µM (active) | 10 | 67.2 µM (active) | 13.9 µM (active) | > 120 µM (not active) | 3.92 µM (active) | 2.19 µM (active) | – | – | –
3 | Oc1c(N=NC(S)=Nc2ccccc2F)c2ccccc2n1Cc1ccccc1F | – | – | – | – | – | – | – | – | – | – | – | – | 1.26 µM (active) | 0.44 µM (active) | 302 µM (active) | 4.06 µM (active)
